According to US20140303092A1 (CHIMERIX, INC., priority 2011, published 2014):

Assay: Study HDP-CDV-201: safety and tolerability (adverse events, laboratory abnormalities, discontinuations)
Format: in vivo, human (adult allogeneic HSCT recipients)
Settings: 40 mg QW
Description: Clinical Studies of HDP-CDV were performed and described in detail in the following Examples. For example, HDP-CDV-201 is a placebo-controlled, dose-escalating trial in HSCT CMV (R+) recipients, evaluating the ability of HDP-CDV to prevent or control CMV infection was carried out. Five cohorts were established in which participants or subjects received either placebo or the HDP-CDV orally, in doses ranging from 40 mg weekly (QW) to 200 mg twice weekly (BIW). Subjects who were post-HSCT were enrolled at the time of engraftment and randomized to HDP-CDV or placebo (3 to 1 ratio) and received blinded therapy until approximately 100 day post-transplantation. HDP-CDV doses were 40 mg QW, 100 mg QW, 200 mg QW, 200 mg BIW and 100 mg BIW. Escalation to the next dose was decided by the data monitoring committee after review of the safety data from the previous Cohort. Subjects who developed CMV disease or CMV infection requiring pre-emptive therapy with local standard of care were discontinued from blinded therapy and followed for 4 weeks. Subjects who completed treatment with blinded therapy were followed for 8 weeks post-therapy.
Data from Study HDP-CDV-201 also provided characterization of the safety and tolerability profile of HDP-CDV when administered for the prevention or control of CMV infection in high risk (R^+) post-HSCT adult subjects.
The Safety population (SAFETY) included all randomized subjects who took at least one dose of study treatment. This population was used to summarize safety outcomes based on the treatment actually received, in cases where a subject was treated contrary to the randomization schedule.
The safety and tolerability profile of HDP-CDV, including subject demographics and Baseline characteristics; the AE profile; and laboratory abnormalities of interest were analyzed in the cohorts followed in this investigation.
Subjects completing the treatment period received a full course of study medication; those completing the entire study attended visits through 8 weeks of follow up. Subjects who discontinued treatment may have done so for protocol specified reasons (e.g. development of clinically significant CMV infection requiring preemptive treatment with excluded anti-CMV medications) or for other reasons (e.g., withdrawal, adverse events, loss to follow-up). The disposition of subjects in Study HDP-CDV-201 during the double-blind, placebo-controlled treatment period (through Week 11) is listed by dosing Cohort in TABLE 23.
Adverse events were examined by severity to ensure that all safety signals were identified in this study population. Because of the frequency of events in HSCT recipients, particular attention was given to evaluation of Grade 3 […], 4 (severe), and 5 (fatal) adverse events.
Only those preferred terms for which at least one Grade 3 or higher event was experienced in any treatment group are listed. Cytomegalovirus-related AEs are excluded from this analysis.
HDP-CDV is a lipid conjugate of CDV. Because CDV is known to have adverse effects on renal function and bone marrow, decreased GFR and persistent neutropenia were identified as AEs of special interest. Key renal and hematological (TABLE 30) laboratory parameters were measured and listed below by Study HDP-CDV-201 treatment groups. TABLE 30 includes abnormal levels of serum creatinine, neutrophils, platelets, WBCs, and hemoglobin and includes data at Screening and during the treatment period.
A common metric for unit based dosing of medications is by weight (mg/kg). When the distribution of weights was examined for all subjects participating in the study, the median was 78 kg and the lower 25th percentile weight was approximately 65 kg, which translates to a cut-off of ˜3 mg/kg for a 200 mg total weekly dose. Based upon this approach, a cut-off of 3 mg/kg was used to assess the frequency of diarrhea and associated GI AEs reported for the subjects in Cohorts 3 or 4a (TABLE 40).

CCCCCCCCCCCCCCCCOCCCOP(=O)(O)COC(CO)Cn1ccc(N)nc1=O (stereo not drawn) [HDP-CDV]
TEAE ALT increased, Frequency: 2 (8.0%)
TEAE ALT increased, Grade 2: 1 (4.0%)
TEAE ALT increased, Grade 3: 1 (4.0%)
TEAE ALT increased, Grade 4: 0
TEAE ALT increased, Grade 5: 0
TEAE AML, Recurrent, Frequency: 3 (12.0%)
TEAE AML, Recurrent, Grade 2: 0
TEAE AML, Recurrent, Grade 3: 0
TEAE AML, Recurrent, Grade 4: 1 (4.0%)
TEAE AML, Recurrent, Grade 5: 0
TEAE AST increased, Frequency: 1 (4.0%)
TEAE AST increased, Grade 2: 0
TEAE AST increased, Grade 3: 1 (4.0%)
TEAE AST increased, Grade 4: 0
TEAE AST increased, Grade 5: 0
TEAE Abdominal pain, Frequency: 4 (16.0%)
TEAE Abdominal pain, Grade 2: 0
TEAE Abdominal pain, Grade 3: 1 (4.0%)
TEAE Abdominal pain, Grade 4: 0
TEAE Abdominal pain, Grade 5: 0
TEAE Acute GVHD, Frequency: 6 (24.0%)
TEAE Acute GVHD, Grade 2: 2 (8.0%)
TEAE Acute GVHD, Grade 3: 1 (4.0%)
TEAE Arthralgias, Frequency: 0
TEAE Arthralgias, Grade 2: 0
TEAE Arthralgias, Grade 3: 0
TEAE Arthralgias, Grade 4: 0
TEAE Arthralgias, Grade 5: 0
TEAE Back Pain, Frequency: 0
TEAE Back Pain, Grade 2: 0
TEAE Back Pain, Grade 3: 0
TEAE Back Pain, Grade 4: 0
TEAE Back Pain, Grade 5: 0
TEAE Decreased appetite, Frequency: 4 (16.0%)
TEAE Decreased appetite, Grade 2: 1 (4.0%)
TEAE Decreased appetite, Grade 3: 1 (4.0%)
TEAE Decreased appetite, Grade 4: 0
TEAE Decreased appetite, Grade 5: 0
TEAE Diarrhea, Frequency: 3 (12.0%)
TEAE Diarrhea, Grade 2: 2 (8.0%)
TEAE Diarrhea, Grade 3: 0
TEAE Diarrhea, Grade 4: 0
TEAE Diarrhea, Grade 5: 0
TEAE Fatigue, Frequency: 1 (4.0%)
TEAE Fatigue, Grade 2: 0
TEAE Fatigue, Grade 3: 0
TEAE Fatigue, Grade 4: 0
TEAE Fatigue, Grade 5: 0
TEAE GGT Increased, Frequency: 0
TEAE GGT Increased, Grade 2: 0
TEAE GGT Increased, Grade 3: 0
TEAE GGT Increased, Grade 4: 0
TEAE GGT Increased, Grade 5: 0
TEAE Generalized oedema, Frequency: 1 (4.0%)
TEAE Generalized oedema, Grade 2: 1 (4.0%)
TEAE Generalized oedema, Grade 3: 0
TEAE Generalized oedema, Grade 4: 0
TEAE Generalized oedema, Grade 5: 0
TEAE Hyperbilirubinaemia, Frequency: 1 (4.0%)
TEAE Hyperbilirubinaemia, Grade 2: 0
TEAE Hyperbilirubinaemia, Grade 3: 0
TEAE Hyperbilirubinaemia, Grade 4: 1 (4.0%)
TEAE Hyperbilirubinaemia, Grade 5: 0
TEAE Hyperglycaemia, Frequency: 1 (4.0%)
TEAE Hyperglycaemia, Grade 2: 1 (4.0%)
TEAE Hyperglycaemia, Grade 3: 0
TEAE Hyperglycaemia, Grade 4: 0
TEAE Hyperglycaemia, Grade 5: 0
TEAE Hyperkalemia, Frequency: 1 (4.0%)
TEAE Hyperkalemia, Grade 2: 0
TEAE Hyperkalemia, Grade 3: 0
TEAE Hyperkalemia, Grade 4: 0
TEAE Hyperkalemia, Grade 5: 0
TEAE Hypocalcaemia, Frequency: 1 (4.0%)
TEAE Hypocalcaemia, Grade 2: 1 (4.0%)
TEAE Hypocalcaemia, Grade 3: 0
TEAE Hypocalcaemia, Grade 4: 0
TEAE Hypocalcaemia, Grade 5: 0
TEAE Hypokalaemia, Frequency: 4 (16.0%)
TEAE Hypokalaemia, Grade 2: 0
TEAE Hypokalaemia, Grade 3: 2 (8.0%)
TEAE Hypokalaemia, Grade 4: 0
TEAE Hypokalaemia, Grade 5: 0
TEAE Hyponatraemia, Frequency: 3 (12.0%)
TEAE Hyponatraemia, Grade 2: 1 (4.0%)
TEAE Hyponatraemia, Grade 3: 1 (4.0%)
TEAE Hyponatraemia, Grade 4: 0
TEAE Hyponatraemia, Grade 5: 0
TEAE LFT Abnormal, Frequency: 0
TEAE LFT Abnormal, Grade 2: 0
TEAE LFT Abnormal, Grade 3: 0
TEAE LFT Abnormal, Grade 4: 0
TEAE LFT Abnormal, Grade 5: 0
TEAE Leukocytosis, Frequency: 1 (4.0%)
TEAE Leukocytosis, Grade 2: 0
TEAE Leukocytosis, Grade 3: 0
TEAE Leukocytosis, Grade 4: 0
TEAE Leukocytosis, Grade 5: 0
TEAE Nausea, Frequency: 6 (24.0%)
TEAE Nausea, Grade 2: 2 (8.0%)
TEAE Nausea, Grade 3: 1 (4.0%)
TEAE Nausea, Grade 4: 0
TEAE Nausea, Grade 5: 0
TEAE Neutropenia, Frequency: 2 (8.0%)
TEAE Neutropenia, Grade 2: 0
TEAE Neutropenia, Grade 3: 2 (8.0%)
TEAE Neutropenia, Grade 4: 0
TEAE Neutropenia, Grade 5: 0
TEAE Pneumonia, Frequency: 1 (4.0%)
TEAE Pneumonia, Grade 2: 0
TEAE Pneumonia, Grade 3: 0
